According to patent US11053204B2, “Pyrimidinyloxy benzene derivatives as herbicides” (FMC Corporation, priority 2015, dated 2021):

Tests used:
Type in all cases: in vivo
rice (Oryza sativa) = experiment: Test B flooded paddy test, plant response rating; conditions: 250 g ai/ha; Flood; scale of 0 to 100 where 0 is no effect and 100 is complete control; 13 to 15 days
How it was run: (§1)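 Flooded 3 cm over soil; compound into paddy water; depth kept constant. Greenhouse 13–15 d.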

[1] = test system: ducksalad (Heteranthera limosa); experiment: Test B flooded paddy test, plant response rating; conditions: 250 g ai/ha; Flood; scale of 0 to 100 where 0 is no effect and 100 is complete control; 13 to 15 days
How it was run: as §1

[2] = test system: barnyardgrass (Echinochloa crus-galli); experiment: Test B flooded paddy test, plant response rating; conditions: 250 g ai/ha; Flood; scale of 0 to 100 where 0 is no effect and 100 is complete control; 13 to 15 days
How it was run: as §1

[3] = test system: sedge, umbrella (small-flower umbrella sedge, Cyperus difformis); experiment: Test B flooded paddy test, plant response rating; conditions: 250 g ai/ha; Flood; scale of 0 to 100 where 0 is no effect and 100 is complete control; 13 to 15 days
How it was run: as §1

[4] = test system: ragweed (common ragweed, Ambrosia elatior); experiment: Test A postemergence, visual injury rating; conditions: 0 is no effect, 100 is complete control
How it was run: (§2)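 Scoring: eye-based comparison with untreated controls, 0 for no effect through 100 for complete control, at about day 10. Treatments: directed soil spray preemergence; foliar spray postemergence on 2–10 cm plants at the one- to two-leaf stage. Medium: loam soil with sand.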

[5] = test system: galium (catchweed bedstraw, Galium aparine); experiment: Test A postemergence, visual injury rating; conditions: 0 is no effect, 100 is complete control
How it was run: as §2

[6] = test system: giant foxtail (Setaria faberii); experiment: Test A postemergence, visual injury rating; conditions: 0 is no effect, 100 is complete control
How it was run: as §2

corn (Zea mays) = experiment: Test A postemergence, visual injury rating; conditions: 0 is no effect, 100 is complete control
How it was run: as §2

[7] = test system: barnyardgrass (Echinochloa crus-galli); experiment: Test A postemergence, visual injury rating; conditions: 0 is no effect, 100 is complete control
How it was run: as §2

[8] = test system: wheat (Triticum aestivum); experiment: Test A postemergence, visual injury rating; conditions: 0 is no effect, 100 is complete control
How it was run: as §2

[9] = test system: Italian ryegrass (Lolium multiflorum); experiment: Test A postemergence, visual injury rating; conditions: 0 is no effect, 100 is complete control
How it was run: as §2

[10] = test system: blackgrass (Alopecurus myosuroides); experiment: Test A postemergence, visual injury rating; conditions: 0 is no effect, 100 is complete control
How it was run: as §2

kochia (Kochia scoparia) [11] = experiment: Test A postemergence, visual injury rating; conditions: 0 is no effect, 100 is complete control
How it was run: as §2

[12] = test system: pigweed (Amaranthus retroflexus); experiment: Test A postemergence, visual injury rating; conditions: 0 is no effect, 100 is complete control
How it was run: as §2

[13] = test system: ragweed (common ragweed, Ambrosia elatior); experiment: Test A preemergence, visual injury rating; conditions: for Ragweed plant response rating: 0 to 100 scale (0 no effect, 100 complete control)
How it was run: as §2

[14] = test system: giant foxtail (Setaria faberii); experiment: Test A preemergence, visual injury rating; conditions: for Foxtail, Giant plant response rating: 0 to 100 scale (0 no effect, 100 complete control)
How it was run: as §2

[15] = test system: barnyardgrass (Echinochloa crus-galli); experiment: Test A preemergence, visual injury rating; conditions: for Barnyardgrass plant response rating: 0 to 100 scale (0 no effect, 100 complete control)
How it was run: as §2

[16] = test system: Italian ryegrass (Lolium multiflorum); experiment: Test A preemergence, visual injury rating; conditions: for Ryegrass, Italian plant response rating: 0 to 100 scale (0 no effect, 100 complete control)
How it was run: as §2

kochia (Kochia scoparia) [17] = experiment: Test A preemergence, visual injury rating; conditions: for Kochia plant response rating: 0 to 100 scale (0 no effect, 100 complete control)
How it was run: as §2

[18] = test system: pigweed (Amaranthus retroflexus); experiment: Test A preemergence, visual injury rating; conditions: for Pigweed plant response rating: 0 to 100 scale (0 no effect, 100 complete control)
How it was run: as §2

[19] = 31 g ai/ha, 0 to 100 scale, approximately 10 days
[20] = 31 g ai/ha, 0 to 100 scale, 0 no effect, 100 complete control

O=C(OCCCl)c1c(Br)cccc1Oc1ncc(Cl)cn1 [Compound 46]
Plant response rating, Rice (rice (Oryza sativa)): 10 | Plant response rating, Ducksalad [1]: 75 | Plant response rating, Barnyardgrass [2]: 0 | Plant response rating, Sedge, Umbrella [3]: 80 | Ragweed plant response rating [4, 19]: 0 | Ragweed plant response rating (0 to 100 scale) ([4]; 125 g ai/ha): 0 | Galium plant response rating [5, 19]: 50 | Galium plant response rating (0 to 100 scale) ([5]; 125 g ai/ha): 70 | Foxtail, Giant plant response rating [6, 19]: 0 | Foxtail, Giant plant response rating (0 to 100 scale) ([6]; 125 g ai/ha): 40 | Corn plant response rating (corn (Zea mays); [19]): 0 | Corn plant response rating (0 to 100 scale) (corn (Zea mays); 125 g ai/ha): 10 | Barnyardgrass plant response rating [7, 19]: 0 | Barnyardgrass plant response rating (0 to 100 scale) ([7]; 125 g ai/ha): 30 | Wheat plant response rating [8, 19]: 0 | Wheat plant response rating (0 to 100 scale) ([8]; 125 g ai/ha): 0 | Ryegrass, Italian plant response rating [9, 19]: 0 | Ryegrass, Italian plant response rating (0 to 100 scale) ([9]; 125 g ai/ha): 0 | Blackgrass plant response rating [10, 19]: 0 | Blackgrass plant response rating (0 to 100 scale) ([10]; 125 g ai/ha): 0 | Kochia plant response rating (kochia (Kochia scoparia) [11]; [19]): 30 | Kochia plant response rating (0 to 100 scale) (kochia (Kochia scoparia) [11]; 125 g ai/ha): 90 | Pigweed plant response rating [12, 19]: 60 | Pigweed plant response rating (0 to 100 scale) ([12]; 125 g ai/ha): 100 | Plant response rating, Ragweed [13, 20]: 0 | Ragweed plant response rating ([13]; 125 g ai/ha): 0 | Plant response rating, Foxtail, Giant [14, 20]: 40 | Foxtail, Giant plant response rating ([14]; 125 g ai/ha): 100 | Plant response rating, Barnyardgrass [15, 20]: 0 | Barnyardgrass plant response rating ([15]; 125 g ai/ha): 20 | Plant response rating, Ryegrass, Italian [16, 20]: 0 | Ryegrass, Italian plant response rating ([16]; 125 g ai/ha): 0 | Plant response rating, Kochia (kochia (Kochia scoparia) [17]; [20]): 0 | Kochia plant response rating (kochia (Kochia scoparia) [17]; 125 g ai/ha): 70 | Plant response rating, Pigweed [18, 20]: 50 | Pigweed plant response rating ([18]; 125 g ai/ha): 100

O=C(OCC(F)(F)F)c1c(F)cccc1Oc1ncc(Br)cn1 [Compound 47]
Plant response rating, Rice (rice (Oryza sativa)): 0 | Plant response rating, Ducksalad [1]: 0 | Plant response rating, Barnyardgrass [2]: 0 | Plant response rating, Sedge, Umbrella [3]: 0 | Ragweed plant response rating (0 to 100 scale) ([4]; 125 g ai/ha): 0 | Ragweed plant response rating (0 to 100 scale) ([4]; 500 g ai/ha): 0 | Galium plant response rating (0 to 100 scale) ([5]; 125 g ai/ha): 0 | Galium plant response rating (0 to 100 scale) ([5]; 500 g ai/ha): 0 | Foxtail, Giant plant response rating (0 to 100 scale) ([6]; 125 g ai/ha): 0 | Foxtail, Giant plant response rating (0 to 100 scale) ([6]; 500 g ai/ha): 0 | Corn plant response rating (0 to 100 scale) (corn (Zea mays); 125 g ai/ha): 0 | Corn plant response rating (0 to 100 scale) (corn (Zea mays); 500 g ai/ha): 0 | Barnyardgrass plant response rating (0 to 100 scale) ([7]; 125 g ai/ha): 0 | Barnyardgrass plant response rating (0 to 100 scale) ([7]; 500 g ai/ha): 0 | Wheat plant response rating (0 to 100 scale) ([8]; 125 g ai/ha): 0 | Wheat plant response rating (0 to 100 scale) ([8]; 500 g ai/ha): 0 | Ryegrass, Italian plant response rating (0 to 100 scale) ([9]; 125 g ai/ha): 0 | Ryegrass, Italian plant response rating (0 to 100 scale) ([9]; 500 g ai/ha): 0 | Blackgrass plant response rating (0 to 100 scale) ([10]; 125 g ai/ha): 0 | Blackgrass plant response rating (0 to 100 scale) ([10]; 500 g ai/ha): 0 | Kochia plant response rating (0 to 100 scale) (kochia (Kochia scoparia) [11]; 125 g ai/ha): 0 | Kochia plant response rating (0 to 100 scale) (kochia (Kochia scoparia) [11]; 500 g ai/ha): 0 | Pigweed plant response rating (0 to 100 scale) ([12]; 125 g ai/ha): 0 | Pigweed plant response rating (0 to 100 scale) ([12]; 500 g ai/ha): 0 | Ragweed plant response rating ([13]; 125 g ai/ha): 0 | Ragweed plant response rating ([13]; 500 g ai/ha): 0 | Foxtail, Giant plant response rating ([14]; 125 g ai/ha): 0 | Foxtail, Giant plant response rating ([14]; 500 g ai/ha): 0 | Barnyardgrass plant response rating ([15]; 125 g ai/ha): 0 | Barnyardgrass plant response rating ([15]; 500 g ai/ha): 0 | Ryegrass, Italian plant response rating ([16]; 125 g ai/ha): 0 | Ryegrass, Italian plant response rating ([16]; 500 g ai/ha): 0 | Kochia plant response rating (kochia (Kochia scoparia) [17]; 125 g ai/ha): 0 | Kochia plant response rating (kochia (Kochia scoparia) [17]; 500 g ai/ha): 0 | Pigweed plant response rating ([18]; 125 g ai/ha): 0 | Pigweed plant response rating ([18]; 500 g ai/ha): 0

O=C(OCC(F)(F)F)c1c(F)cccc1Oc1ncc(Cl)cn1 [Compound 48]
Plant response rating, Rice (rice (Oryza sativa)): 20 | Plant response rating, Ducksalad [1]: 0 | Plant response rating, Barnyardgrass [2]: 20 | Plant response rating, Sedge, Umbrella [3]: 0 | Ragweed plant response rating (0 to 100 scale) ([4]; 125 g ai/ha): 0 | Ragweed plant response rating (0 to 100 scale) ([4]; 500 g ai/ha): 0 | Galium plant response rating (0 to 100 scale) ([5]; 125 g ai/ha): 0 | Galium plant response rating (0 to 100 scale) ([5]; 500 g ai/ha): 10 | Foxtail, Giant plant response rating (0 to 100 scale) ([6]; 125 g ai/ha): 0 | Foxtail, Giant plant response rating (0 to 100 scale) ([6]; 500 g ai/ha): 20 | Corn plant response rating (0 to 100 scale) (corn (Zea mays); 125 g ai/ha): 0 | Corn plant response rating (0 to 100 scale) (corn (Zea mays); 500 g ai/ha): 0 | Barnyardgrass plant response rating (0 to 100 scale) ([7]; 125 g ai/ha): 0 | Barnyardgrass plant response rating (0 to 100 scale) ([7]; 500 g ai/ha): 30 | Wheat plant response rating (0 to 100 scale) ([8]; 125 g ai/ha): 0 | Wheat plant response rating (0 to 100 scale) ([8]; 500 g ai/ha): 0 | Ryegrass, Italian plant response rating (0 to 100 scale) ([9]; 125 g ai/ha): 0 | Ryegrass, Italian plant response rating (0 to 100 scale) ([9]; 500 g ai/ha): 0 | Blackgrass plant response rating (0 to 100 scale) ([10]; 125 g ai/ha): 0 | Blackgrass plant response rating (0 to 100 scale) ([10]; 500 g ai/ha): 20 | Kochia plant response rating (0 to 100 scale) (kochia (Kochia scoparia) [11]; 125 g ai/ha): 0 | Kochia plant response rating (0 to 100 scale) (kochia (Kochia scoparia) [11]; 500 g ai/ha): 0 | Pigweed plant response rating (0 to 100 scale) ([12]; 125 g ai/ha): 20 | Pigweed plant response rating (0 to 100 scale) ([12]; 500 g ai/ha): 40 | Ragweed plant response rating ([13]; 125 g ai/ha): 0 | Ragweed plant response rating ([13]; 500 g ai/ha): 0 | Foxtail, Giant plant response rating ([14]; 125 g ai/ha): 0 | Foxtail, Giant plant response rating ([14]; 500 g ai/ha): 10 | Barnyardgrass plant response rating ([15]; 125 g ai/ha): 0 | Barnyardgrass plant response rating ([15]; 500 g ai/ha): 10 | Ryegrass, Italian plant response rating ([16]; 125 g ai/ha): 0 | Ryegrass, Italian plant response rating ([16]; 500 g ai/ha): 0 | Kochia plant response rating (kochia (Kochia scoparia) [17]; 125 g ai/ha): 0 | Kochia plant response rating (kochia (Kochia scoparia) [17]; 500 g ai/ha): 0 | Pigweed plant response rating ([18]; 125 g ai/ha): 0 | Pigweed plant response rating ([18]; 500 g ai/ha): 0
